Data: patent US12251385B2, “Covalent inhibitors of menin-MLL interaction for diabetes mellitus” (BIOMEA FUSION, INC., priority 2021, dated 2025)
Entries after “also recorded” stand apart in the source; their conditions may differ.

Tests used:
[1] = test system: Zucker diabetic fatty rats (ZDF rats, genotype ZDF-Lepr^fa/Crl); test: Restoration of glycemic control in diabetic fatty rats, dosing Days 1-16 (Example 102); format: in vivo, rat
Description: The present examples provides the ability of Compound 10 to restore glycemic control to diabetic Zucker diabetic fatty rats (ZDF rats, genotype ZDF-Lepr^fa/Crl; Charles River). Cornicelli et al., 2005, Charles River.
(§1) Control and test compounds were stored at 4° C. and prepared weekly as needed. The vehicle for positive control pioglitazone was 0.25% carboxymethylcellulose and 1% Tween® 80 in reverse osmosis deionized water. The vehicle for Compound 10 was 10% DMSO, 10% Solutol HS 15, and 80% (10% hydroxypropyl-β-cyclodextrin in 50 mM citrate buffer at pH 3.0).
(§2) On Day −3, twenty-four ZDF rats (plus eight spare ZDF rats) were measured for body weight and non-fasting glucose. LabDiet 5008 was provided ad libitum throughout the study, except during designated procedures, as was water. In order to minimize the effects of stress on blood glucose and body, all animals including the spares received daily sham doses with phosphate buffered saline pH 7.2 (dose volume 5 mL/kg) via gavage beginning on Study Day −5 to Day −1.
Vehicle, control, and test compound were administered via oral gavage according to the following design on Days 1-16.
On Days −3, 1, 8, and 14 non-fasting blood glucose was measured. […] The animals were weighed, and the animals were placed in clean cages without food. Access to water was provided throughout the procedure. The animals were fasted for five hours and a blood glucose measurement was determined. The animals were dosed via oral gavage with 2 g/kg glucose (10 mL/kg). Blood glucose was determined via tail snip. The second drop of blood from the animal was placed on a hand-held glucometer (Abbott Alpha Trak) at the following times relative to the glucose dose: zero (just prior to glucose dose), 15, 30, 60, 90, and 120 min. Following the final blood glucose measurement, food was returned to the cages. On Day 17, 4-hour fasting glucose was measured. Serum samples were used to measure insulin by ELISA. Analysis was performed in one to three days of each collections. […]

[2] = test system: streptozotocin (STZ) induced type II diabetes in Wistar Han rats; test: Restoration of glycemic control in streptozotocin-induced rats (Example 103); format: in vivo, rat
Description: The present example provides the ability of Compound 10 to restore glycemic control to streptozotocin (STZ) induced type II diabetes in Wistar Han rats. Fahmy et al., 2017, World J. Pharm. Med. Res. 3(3):37-39.
as §1, with “3.0). The vehicle for streptozotocin pretreatment was 0.1 M sodium citrate pH 4.5.” for “3.0).”
as §2, with “Wistar Han” for “ZDF”, “Starting on Day −42, D12451 Research Diet” for “LabDiet 5008”, “−1. 20% Glucose in drinking water (200 g/L) was provided ad libitum for 24 hr after streptozotocin injection on Day −14 and Day −7.” for “−1.”
On Days −14 and −7, streptozotocin was administered at 30 mg/kg/day QD intraperitoneally. Starting on Day 1, control and test compound were administered on the following schedule.
On Days −7 to −1 and on Days 1, 8, and 14 non-fasting blood glucose was measured. On Day 15, an oral glucose tolerance test was administered. The animals were weighed and the animals were placed in clean cages without food. Access to water was provided throughout the procedure. The animals were fasted for five hours and a blood glucose measurement was determined. The animals were dosed via oral gavage with 2 g/kg glucose (10 mL/kg). Blood glucose was determined via venipuncture. The second drop of blood from the animal was placed on a hand-held glucometer (Abbott Alpha Trak) at the following times relative to the glucose dose: zero (just prior to glucose dose), 15, 30, 60, 90, and 120 min. Following the final blood glucose measurement, food was returned to the cages. On Day 17, 4-hour fasting glucose was measured. Serum samples were used to measure insulin by ELISA. Analysis was performed in one to three days of each collection. On Day 17, terminal blood collection was obtained at about 8 mL per animal and measured for blood glucose.

[3] = test system: Type 2 Diabetes Mellitus (T2DM) Zucker Diabetic Fatty Rat model; test: Glycemic control in ZDF rats, 28 days treatment plus 28 days post-treatment (Example 104); format: in vivo
Description: Rats were treated daily with Compound 10, liraglutide, or vehicle for twenty-eight days and monitored for an additional twenty-eight days post-treatment.

[4] = test system: Zucker Diabetic Fatty (ZDF) Rat; test: ZDF rat model, 16 days dosing and drug washout to Day 29 (Example 105); format: in vivo; details: ZDF rats
Description: (§3) ZDF rats were treated daily with Compound 10, vehicle, or pioglitazone for sixteen days and monitored for an additional two weeks post-treatment until Day 29. STZ rat models were induced through pre-treatment of animals on a high-fat diet with low doses of streptozotocin at Day −14 and Day −7 prior to starting treatment at Day Zero until Day 16. ZDF and STZ rats were monitored for fasting blood glucose levels, oral glucose tolerance test (OGTT), insulin and C-peptide levels, HOMA-IR (Homeostatic Model Assessment of Insulin Resistance), blood lipemic levels, and body weight according to the schematic for each model below. ZDF rats were analyzed for indicated readouts for fifteen days post-treatment for OGTT at Day 29, and serum insulin and C-peptide at Day 31.
ZDF Rat Model—three treatment groups 1. Vehicle; 2. Compound 10 at 175 mg/kg; and 3. Pioglitazone at 30 mg/kg; n=10 per group. Daily dosing zero to sixteen days QD 4 drug wash out at sixteen to twenty-nine days. Rats were monitored for the following parameters through dosing and wash out phases—body weight, fasting blood sugar, blood insulin, C-peptide, and OGTT.

[5] = test system: Streptozotocin-induced Rat (STZ); test: STZ rat model, 16 days dosing (Example 105); format: in vivo; details: STZ rats
Description: as §3
STZ Rat Model—three treatment groups 1. Vehicle; 2. Compound 10 at 175 mg/kg; and 3. Pioglitazone at 30 mg/kg; n=10 per group. Fourteen-day STZ pretreatment prior to dosing. Daily dosing zero to sixteen days QD. Rats were monitored for the following parameters through dosing—body weight, blood glucose levels, and OGTT.

[6] = test system: Zucker Diabetic Fatty (ZDF) rats; test: Reduction in HbA1c in ZDF rats, 28 days dosing and washout (Example 106); format: in vivo, rat
Description: Zucker Diabetic Fatty (ZDF) rats were dosed daily with Compound 10, liraglutide, or vehicle for twenty-eight days (n=10 per group) and monitored for an additional twenty-eight days post last dose. Fasting blood glucose, insulin, C-peptide levels, HbA1c, oral glucose tolerance test (OGTT), and body weight were monitored during and post-treatment.
ZDF Rat Model—five treatment groups 1. Vehicle; 2. Compound 10 at 40 mg/kg; 3. Compound 10 at 85 mg/kg; 4. Compound 10 at 170 mg/kg; and 5. Liraglutide at 0.2 mg/kg; n=10 per group. Group 2 dose (40 mg/kg) was increased to 200 mg/kg on Day 17 for rest of the dosing phase. Daily dosing zero to twenty-eight days days QD 4 drug wash out twenty-eight to fifty-six days. Rats were monitored for the following parameters through dosing and wash out phases—body weight, fasting blood sugar, blood insulin, C-peptide, OGTT, and HbA1C.

[7] = 175 mg/kg QD, after two weeks of treatment
[8] = 175 mg/kg QD, after two weeks of treatment, p<0.05
[9] = twenty-eight days of treatment, FIG. 18
[10] = up to the last day of dosing, lasting two weeks post last dose

## C=CC(=O)N[C@@H]1CCCN(Cc2ccnc(C(=O)Nc3ccc(-c4cc5c(N6CCOCC6)ncnc5[nH]4)cc3)c2)C1 [Compound 10]
[1]; 175 mg/kg/day PO QD, Days 1, 8, 14, compared to vehicle and control, FIG. 2A
  insulin, non-fasting state: significant reduction
[1]; 175 mg/kg/day PO QD, compared to vehicle and control, FIG. 1B
  glucose, fasting state: significant reduction
[1]; 175 mg/kg/day PO QD, compared to vehicle and control, FIG. 2B
  insulin, fasting state: significant reduction
[1]; 175 mg/kg/day PO QD, compared to vehicle and control, FIG. 3A
  insulin resistance (HOMA), non-fasting state: significant reduction
[1]; 175 mg/kg/day PO QD, compared to vehicle and control, FIG. 3B
  insulin resistance (HOMA), fasting state: significant reduction
[1]; Compound 10 175 mg/kg/day PO QD, compared to vehicle and control (pioglitazone), FIG. 1A
  glucose, non-fasting state: significant reduction
[1]; Day 29, after fourteen days of no treatment, FIGS. 5A-5B
  oral glucose tolerance test (blood glucose, AUC), Day 29: significant glucose control
[1]; FIG. 7
  C-peptide two weeks after therapy: increasing C-peptide
[1]; after fifteen days of treatment, 2 g/kg glucose, FIGS. 4A-4B
  oral glucose tolerance test (blood glucose, AUC): significant glucose control
[1]; no therapy for two weeks, statistically superior to control, FIG. 6A
  4-hour fasting insulin after two weeks without therapy: increasing insulin
[1]; no therapy for two weeks, statistically superior to control, FIG. 6B
  4-hour fasting glucose after two weeks without therapy: glucose lowering
[2]; STZ-induced Wistar Han rats, 175 mg/kg/day PO QD, compared to vehicle and control, FIG. 8
  non-fasting glucose: sharp reduction
[2]; STZ-induced rats, Day 17
  insulin, 4-hour fasting state (FIG. 10B): maintenance or reduction
[2]; STZ-induced rats, Days 1, 8 and 14
  insulin, non-fasting state (FIG. 10A): maintenance or reduction
[2]; STZ-induced rats, Days 1 and 8
  insulin, non-fasting state (FIG. 9): significant reduction
[2]; STZ-induced rats, after fifteen days of treatment, significant relative to vehicle and control, FIGS. 11A-11B
  oral glucose tolerance test (blood glucose, AUC): significant glucose control
[3]; 28 days daily treatment, Day 29, FIG. 12
  absolute reduction in HbA1C versus vehicle: 3.5%
[3]; FIG. 12
  HbA1C throughout the entire study, including post-treatment: remained reduced
[3]; both Compound 10 dose groups, in contrast to vehicle and liraglutide
  oral glucose tolerance test (OGTT) on Day 25: improved glycemic control
[3]; daily treatment for twenty-eight days, throughout the study
  tolerability: tolerated Compound 10 well
[3]; high-dose arm, during treatment up to Day 29
  4-hour fasting blood glucose: strong reduction
[4]; 175 mg/kg QD for sixteen days, 175 mg/kg
  body weight: reduces body weight; also recorded: Significant reductions
[4]; 175 mg/kg QD for sixteen days, Day 17, p<0.01, 175 mg/kg
  blood lipemic levels (cholesterol, triglycerides): significantly reduces; also recorded: Significant reductions
[4]; [7]
  reduction in fasting blood glucose levels: ~50%
  reduction in non-fasting blood glucose levels: ~50%
[4]; 175 mg/kg QD, after two weeks of treatment, p<0.001
  HOMA-IR: reduced
[4]; [8]
  C-peptide levels: significantly reduced
  serum insulin levels: significantly reduced
[4]; 175 mg/kg QD, p<0.001
  OGTT AUC reduction, Day 15: 54%
[4]; drug washout, ~two weeks after the last dose, p<0.05
  OGTT AUC reduction, Day 29: 40%
[4]; sixteen days of treatment, FIG. 16
  insulin sensitivity (HOMA-IR): increases insulin sensitivity
[4]; two weeks after the last dose, FIG. 14
  blood glucose, insulin, and C-peptide levels during drug washout: maintains significant impact
[5]
  body weight: Significant reductions
[5]; 175 mg/kg QD, measured weekly during treatment, FIG. 15B, 175 mg/kg
  blood glucose levels (non-fasting) during treatment: strongly reduces; also recorded: reduction of glucose levels
[5]; Compound 10 175 mg/kg, pioglitazone 30 mg/kg QD, p<0.05
  OGTT AUC reduction, Day 15: 41%
[5]; p<0.01
  blood lipemic levels: Significant reductions
[6]; 4-week dosing study
  HbA1c, all doses tested: significantly reduces; also recorded: significant reductions
[6]; 85 and 170 mg/kg QD, similar to liraglutide
  fasting blood glucose levels, mid- and high-dose arms: reduction
[6]; Day 15 post-dosing, FIG. 21
  HbA1c two weeks after the last dose: maintains a significant reduction
[6]; Day 29
  HbA1c absolute amount lower than the liraglutide group: 1.8%
  HbA1c absolute amount lower than the vehicle group: 3.5%
  HbA1c reduced from vehicle (relative): 33%
[6]; Day 29, reduced from vehicle
  HbA1c relative reduction printed with the liraglutide comparison: 20%
[6]; FIG. 20
  glycemic control over four weeks of dosing: durable glycemic control
[6]; high-dose group, one day after treatment stopped
  fasting blood glucose, Day 29: sustained and significant reduction
[6]; high-dose-treated group versus liraglutide
  oral glucose tolerance test (OGTT) on Day 25, high-dose group: improved response versus liraglutide
[6]; in comparison to the vehicle-treated group
  oral glucose tolerance test (OGTT) on Day 25, all dose groups: improved glycemic control
[6]; [9]
  body weight over time: progressive increase
  fasting blood glucose levels over time: progressive increase
[6]; [10]
  fasting c-peptide levels: elevated
  fasting insulin levels: elevated
